Target: T1, c-kit (Homo sapiens, UniProt P10721)
T1 construct: MO7e (human megakaryocytic leukemia cell line) which had been arrested for 20 hr; endogenous in cells; host or cells: MO7e human megakaryocytic leukemia cell line
Test: Inhibitory activity against c-kit autophosphorylation (MO7e cells, h-SCF)
Assay type: cell-based
Settings: MO7e cells, h-SCF stimulation; read-out: c-kit IC50
Procedure, shortened: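 MO7e cells, arrested for 20 hr, were pretreated with test compound in DMSO for 1 hr and then stimulated with 50 ng/ml h-SCF for 5 min before lysis. Lysates were captured on immobilized anti-phosphotyrosine PY-20, probed with anti-c-kit antibody and HRP anti-rabbit IgG, and read colorimetrically at 450 nm.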

T1 sequence (P10721 26-976): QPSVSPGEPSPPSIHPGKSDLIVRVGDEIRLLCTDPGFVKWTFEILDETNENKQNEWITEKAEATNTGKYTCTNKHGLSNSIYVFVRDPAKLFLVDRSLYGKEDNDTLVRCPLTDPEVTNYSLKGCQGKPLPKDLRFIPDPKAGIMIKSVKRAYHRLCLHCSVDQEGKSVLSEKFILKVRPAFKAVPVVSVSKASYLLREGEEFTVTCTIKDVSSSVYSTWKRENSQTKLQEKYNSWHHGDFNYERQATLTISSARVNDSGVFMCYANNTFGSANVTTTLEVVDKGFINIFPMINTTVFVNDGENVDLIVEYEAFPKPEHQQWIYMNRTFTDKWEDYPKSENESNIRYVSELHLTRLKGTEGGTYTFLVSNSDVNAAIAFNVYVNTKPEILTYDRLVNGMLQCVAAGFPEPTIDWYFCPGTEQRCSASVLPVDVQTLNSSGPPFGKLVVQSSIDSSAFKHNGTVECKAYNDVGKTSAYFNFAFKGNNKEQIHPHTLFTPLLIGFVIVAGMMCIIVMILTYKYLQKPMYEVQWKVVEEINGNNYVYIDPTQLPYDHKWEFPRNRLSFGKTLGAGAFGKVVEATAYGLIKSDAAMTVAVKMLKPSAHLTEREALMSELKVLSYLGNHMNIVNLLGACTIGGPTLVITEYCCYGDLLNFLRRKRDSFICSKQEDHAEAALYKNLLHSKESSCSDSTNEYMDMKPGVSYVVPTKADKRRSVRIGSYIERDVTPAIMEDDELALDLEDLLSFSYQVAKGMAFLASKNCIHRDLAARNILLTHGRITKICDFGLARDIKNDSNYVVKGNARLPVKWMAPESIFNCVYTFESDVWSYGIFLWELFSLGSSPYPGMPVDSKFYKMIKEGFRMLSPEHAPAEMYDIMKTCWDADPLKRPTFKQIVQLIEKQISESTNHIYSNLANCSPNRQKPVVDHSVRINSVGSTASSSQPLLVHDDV

Row | SMILES | IC50
1 | COc1cc2ncnc(Oc3ccc(NCCOc4ccccc4)cc3)c2cc1OC [Example 873, N-{4-[(6,7-Dimethoxy-4-quinazolinyl)oxy]phenyl}-N-(2-phenoxyethyl)amine] | 69 nM
2 | COc1cc2ncnc(Oc3ccc(NCCOc4ccccc4O)cc3)c2cc1OC [Example 874, 2-(2-{4-[(6,7-Dimethoxy-4-quinazolinyl)oxy]anilino}ethoxy)phenol] | 151 nM
3 | COc1cc2nccc(Oc3ccc(NCCOc4ccccc4)cc3C)c2cc1OC [Example 875, N-{4-[(6,7-Dimethoxy-4-quinolyl)oxy]-3-methylphenyl}-N-(2-phenoxyethyl)amine] | 115 nM
4 | COc1cc2nccc(Oc3ccc(NCCOc4ccccc4C)cc3C)c2cc1OC [Example 876, N-{4-[(6,7-Dimethoxy-4-quinolyl)oxy]-3-methylphenyl}-N-[2-(2-methylphenoxy)ethyl]amine] | 242 nM
5 | COc1cc2nccc(Oc3ccc(NCCOc4ccccc4Cl)cc3C)c2cc1OC [Example 877, N-[2-(2-Chlorophenoxy)ethyl]-N-{4-[(6,7-dimethoxy-4-quinolyl)oxy]-3-methylphenyl}amine] | 219 nM
6 | COc1cc2nccc(Oc3ccc(NC(=S)NC(=O)c4ccccc4)cc3)c2cc1OC [Example 897, N-Benzoyl-N′-{4-[(6,7-dimethoxy-4-quinolyl)oxy]phenyl}thiourea] | 938 nM
7 | COc1cc2nccc(Oc3ccc(NC(=S)NC(=O)c4ccccc4Cl)cc3)c2cc1OC [Example 898, N-(2-Chlorobenzoyl)-N′-{4-[(6,7-dimethoxy-4-quinolyl)oxy]phenyl}thiourea] | 637 nM
8 | COc1cc2nccc(Oc3ccc(NC(=S)NC(=O)c4ccccc4Br)cc3)c2cc1OC [Example 900, N-(2-Bromobenzoyl)-N′-{4-[(6,7-dimethoxy-4-quinolyl)oxy]phenyl}thiourea] | 372 nM
9 | COc1cc2nccc(Oc3ccc(NC(=S)NC(=O)c4ccccc4C(F)(F)F)cc3)c2cc1OC [Example 902, N-{4-[(6,7-Dimethoxy-4-quinolyl)oxy]phenyl}-N′-[2-(trifluoromethyl)benzoyl]thiourea] | 299 nM
10 | COc1cc2nccc(Oc3ccc(NC(=S)NC(=O)c4ccccc4Br)c(F)c3)c2cc1OC [Example 907, N-(2-Bromobenzoyl)-N′-{4-[(6,7-dimethoxy-4-quinolyl)oxy]-2-fluorophenyl}thiourea] | 572 nM
11 | COc1cc2nccc(Oc3ccc(NC(=S)NC(=O)c4ccccc4)cc3F)c2cc1OC [Example 911, N-Benzoyl-N′-{4-[(6,7-dimethoxy-4-quinolyl)oxy]-3-fluorophenyl}thiourea] | 498 nM
12 | COc1cc2nccc(Oc3ccc(NC(=S)NC(=O)c4ccccc4C)cc3F)c2cc1OC [Example 912, N-{4-[(6,7-Dimethoxy-4-quinolyl)oxy]-3-fluorophenyl}-N′-(2-methylbenzoyl)thiourea] | 497 nM
13 | COc1cc2nccc(Oc3ccc(NC(=S)NC(=O)c4ccccc4Cl)cc3F)c2cc1OC [Example 913, N-(2-Chlorobenzoyl)-N′-{4-[(6,7-dimethoxy-4-quinolyl)oxy]-3-fluorophenyl}thiourea] | 563 nM
14 | COc1cc2nccc(Oc3ccc(NC(=S)NC(=O)c4ccccc4Br)cc3F)c2cc1OC [Example 914, N-(2-Bromobenzoyl)-N′-{4-[(6,7-dimethoxy-4-quinolyl)oxy]-3-fluorophenyl}thiourea] | 299 nM
15 | COc1cc2nccc(Oc3ccc(NC(=S)NC(=O)c4ccccc4)cc3Cl)c2cc1OC [Example 918, N-Benzoyl-N′-{3-chloro-4-[(6,7-dimethoxy-4-quinolyl)oxy]phenyl}thiourea] | 552 nM

Now from value to molecule:

Row | IC50 | SMILES
16 | 448 nM | COc1cc2ncnc(Oc3ccc(NC(=S)NC(=O)c4ccccc4Cl)cc3Cl)c2cc1OC [Example 920, N-(2-Chlorobenzoyl)-N′-{3-chloro-4-[(6,7-dimethoxy-4-quinazolinyl)oxy]phenyl}thiourea]
17 | 365 nM | COc1cc2nccc(Oc3ccc(NC(=S)NC(=O)c4ccccc4Br)cc3Cl)c2cc1OC [Example 922, N-(2-Bromobenzoyl)-N′-{3-chloro-4-[(6,7-dimethoxy-4-quinolyl)oxy]phenyl}thiourea]
18 | 440 nM | COc1cc2nccc(Oc3ccc(NC(=S)NC(=O)c4ccccc4C(F)(F)F)cc3Cl)c2cc1OC [Example 924, N-{3-Chloro-4-[(6,7-dimethoxy-4-quinolyl)oxy]phenyl}-N′-[2-(trifluoromethyl)benzoyl]thiourea]
19 | 289 nM | COc1cc2ncnc(Oc3ccc(NC(=S)NC(=O)c4ccccc4Cl)cc3)c2cc1OC [Example 928, N-(2-Chlorobenzoyl)-N′-{4-[(6,7-dimethoxy-4-quinazolinyl)oxy]phenyl}thiourea]
20 | 516 nM | COc1cc2nccc(Oc3ccc(NC(=S)NC(=O)c4cccc(F)c4)cc3)c2cc1OC [Example 931, N-{4-[(6,7-Dimethoxy-4-quinolyl)oxy]phenyl}-N′-(3-fluorobenzoyl)thiourea]
21 | 208 nM | COc1cc2nccc(Oc3ccc(NC(=S)NC(=O)c4cccc(Cl)c4)cc3)c2cc1OC [Example 932, N-(3-Chlorobenzoyl)-N′-{4-[(6,7-dimethoxy-4-quinolyl)oxy]phenyl}thiourea]
22 | 493 nM | COc1cccc(C(=O)NC(=S)Nc2ccc(Oc3ccnc4cc(OC)c(OC)cc34)cc2)c1 [Example 933, N-{4-[(6,7-Dimethoxy-4-quinolyl)oxy]phenyl}-N′-(3-methoxybenzoyl)thiourea]
23 | 143 nM | COc1cc2nccc(Oc3ccc(NC(=S)NC(=O)c4cccc(C(F)(F)F)c4)cc3)c2cc1OC [Example 934, N-{4-[(6,7-Dimethoxy-4-quinolyl)oxy]phenyl}-N′-[3-(trifluoromethyl)benzoyl]thiourea]
24 | 166 nM | COc1cc2nccc(Oc3ccc(NC(=S)NC(=O)c4cccc(Br)c4)cc3)c2cc1OC [Example 935, N-(3-Bromobenzoyl)-N′-{4-[(6,7-dimethoxy-4-quinolyl)oxy]phenyl}thiourea]
25 | 427 nM | COc1cc2nccc(Oc3ccc(NC(=S)NC(=O)c4cccc(C)c4)c(F)c3)c2cc1OC [Example 936, N-{4-[(6,7-Dimethoxy-4-quinolyl)oxy]-2-fluorophenyl}-N′-(3-methylbenzoyl)thiourea]
26 | 819 nM | COc1cc2nccc(Oc3ccc(NC(=S)NC(=O)c4cccc(F)c4)c(F)c3)c2cc1OC [Example 937, N-{4-[(6,7-Dimethoxy-4-quinolyl)oxy]-2-fluorophenyl}-N′-(3-fluorobenzoyl)thiourea]
27 | 532 nM | COc1cc2nccc(Oc3ccc(NC(=S)NC(=O)c4cccc(Cl)c4)c(F)c3)c2cc1OC [Example 938, N-(3-Chlorobenzoyl)-N′-{4-[(6,7-dimethoxy-4-quinolyl)oxy]-2-fluorophenyl}thiourea]
28 | 220 nM | COc1cccc(C(=O)NC(=S)Nc2ccc(Oc3ccnc4cc(OC)c(OC)cc34)cc2F)c1 [Example 939, N-{4-[(6,7-Dimethoxy-4-quinolyl)oxy]-2-fluorophenyl}-N′-(3-methoxybenzoyl)thiourea]

Same assay, conditions: Mo7e, figure in parentheses in −( ); at 1000 nM

Row | SMILES | inhibition at 1 µM
29 | COc1cc2nccc(Oc3ccc(NC(=S)NC(=O)c4ccccc4OC)cc3)c2cc1OC [Example 901, N-{4-[(6,7-Dimethoxy-4-quinolyl)oxy]phenyl}-N′-(2-methoxybenzoyl)thiourea] | 27%
30 | COc1cc2nccc(Oc3ccc(NC(=S)NC(=O)c4ccccc4)c(F)c3)c2cc1OC [Example 903, N-Benzoyl-N′-{4-[(6,7-dimethoxy-4-quinolyl)oxy]-2-fluorophenyl}thiourea] | 34%
31 | COc1cc2nccc(Oc3ccc(NC(=S)NC(=O)c4ccccc4C)c(F)c3)c2cc1OC [Example 904, N-{4-[(6,7-Dimethoxy-4-quinolyl)oxy]-2-fluorophenyl}-N′-(2-methylbenzoyl)thiourea] | 46%
32 | COc1cc2nccc(Oc3ccc(NC(=S)NC(=O)c4ccccc4F)c(F)c3)c2cc1OC [Example 906, N-{4-[(6,7-Dimethoxy-4-quinolyl)oxy]-2-fluorophenyl}-N′-(2-fluorobenzoyl)thiourea] | 29%
33 | COc1cc2nccc(Oc3ccc(NC(=S)NC(=O)c4ccccc4OC)c(F)c3)c2cc1OC [Example 909, N-{4-[(6,7-Dimethoxy-4-quinolyl)oxy]-2-fluorophenyl}-N′-(2-methoxybenzoyl)thiourea] | 32%
34 | COc1cc2nccc(Oc3ccc(NC(=S)NC(=O)c4ccccc4C(F)(F)F)c(F)c3)c2cc1OC [Example 910, N-{4-[(6,7-Dimethoxy-4-quinolyl)oxy]-2-fluorophenyl}-N′-[2-(trifluoromethyl)benzoyl]thiourea] | 38%
35 | COc1cc2nccc(Oc3ccc(NC(=S)NC(=O)c4ccccc4OC)cc3F)c2cc1OC [Example 916, N-{4-[(6,7-Dimethoxy-4-quinolyl)oxy]-3-fluorophenyl}-N′-(2-methoxybenzoyl)thiourea] | 16%
36 | COc1cc2nccc(Oc3ccc(NC(=S)NC(=O)c4ccccc4C)cc3Cl)c2cc1OC [Example 919, N-{3-Chloro-4-[(6,7-dimethoxy-4-quinolyl)oxy]phenyl}-N′-(2-methylbenzoyl)thiourea] | 11%

Results, then the molecule that gave them:

Row | inhibition at 1 µM | SMILES
37 | 42% | COc1cc2nccc(Oc3ccc(NC(=S)NC(=O)c4ccccc4F)cc3Cl)c2cc1OC [Example 921, N-{3-Chloro-4-[(6,7-dimethoxy-4-quinolyl)oxy]phenyl}-N′-(2-fluorobenzoyl)thiourea]
38 | 25% | COc1cc2nccc(Oc3ccc(NC(=S)NC(=O)c4ccccc4OC)cc3Cl)c2cc1OC [Example 923, N-{3-Chloro-4-[(6,7-dimethoxy-4-quinolyl)oxy]phenyl}-N′-(2-methoxybenzoyl)thiourea]
39 | 31% | COc1cc2ncnc(Oc3ccc(NC(=S)NC(=O)c4ccccc4)cc3)c2cc1OC [Example 926, N-Benzoyl-N′-{4-[(6,7-dimethoxy-4-quinazolinyl)oxy]phenyl}thiourea]
40 | 21% | COc1cc2ncnc(Oc3ccc(NC(=S)NC(=O)c4ccccc4OC)cc3)c2cc1OC [Example 929, N-{4-[(6,7-Dimethoxy-4-quinazolinyl)oxy]phenyl}-N′-(2-methoxybenzoyl)thiourea]

Source: US7135466B2 (Kirin Beer Kabushiki Kaisha, priority 1999, dated 2006)
